Assay results: patent US11241430B2, “Solid forms of 2-(tert-butylamino)-4-((1R,3R,4R)-3-hydroxy-4-methylcyclohexylamino)-pyrimidine-5-carboxamide, compositions thereof and methods of their use” (Signal Pharmaceuticals, LLC, priority 2014, dated 2022)
In brackets after ≈: the same amount, converted by molar mass. Blank lines part the entries; values can stand above or below the compound they belong to.

How the values were obtained:
[1] = Moisture sorption/desorption (hygroscopicity) by DVS; format: physicochemical
Procedure: Hygroscopicity was determined on a Surface Measurement Systems DVS. Typically a sample size of 5-20 mg was loaded into the DVS instrument sample pan and the sample was analyzed on a DVS automated sorption analyzer at room temperature. The relative humidity was increased from 0% to 90% RH at 10% RH step, then at 95% RH. The relative humidity was then decreased in a similar manner to accomplish a full adsorption/desorption cycle.
The moisture sorption/desorption behavior of Form A was determined by DVS.

Water uptake on storage = format: physicochemical
[2] = Compression test of Form A; format: physicochemical; conditions: 2000-psi pressure for about 1 minute
Description: The stability of Form A was further characterized by compression test and form transfer experiments.

physchem = conditions: 25 °C, thermodynamic from solid
[3] = Slurry experiments of Form H in water/DMSO (form map)
Procedure: The effect of temperature (22° C.-70° C.) and water compositions in DMSO (50%-88%) on the stability of Form A and Form H of Compound 1 is mapped out in Table 6 and FIG. 45.

[4] = Form conversion experiments: heating of solvated forms; format: physicochemical
Procedure: (§1) Further form conversion experiments were performed to determine interconversion among solid forms. The solvated forms were isothermally held at 150° C. for 5 min and the resulted solids were consistent with Form A. All aqueous slurries also afforded Form A.

[5] = Form conversion experiments: slurry in water; format: physicochemical; conditions: RT, 5 days
Procedure: as §1

XRPD diffractogram after adsorption/desorption cycles ([1]; after DVS cycle 0-95% RH): no change
DVS water uptake ([1]; at 80% RH (Table 5)): 1.0 wt % at
steep mass change (DVS) ([1]; between 0 and 10% RH, room temperature): 1.3%
total mass change (DVS) ([1]; between 0 and 95% RH, room temperature): 2.3%
DVS water uptake ([1]; from 0 to 95% RH (Table 5)): 1.2 wt % water
water uptake at room temperature (Water uptake on storage; room temperature): relatively slow water uptake
water absorbed after storage (Water uptake on storage; storage at 40° C./75% RH for 7 months): up to 3%
solid form after compression (XRPD) [2]: still Form A
solubility at 24 h (physchem; pH 4.5, aqueous buffer): 289 µg/mL (≈ 899 µM)
solubility at 24 h (physchem): 38 µg/mL (≈ 118 µM)
form stability in water/DMSO ([3]; 22° C., 70-88% water in DMSO): remained as Form A
thermodynamic stability in water/DMSO ([3]; water rich water/DMSO mixture (>70%), 22° C.-70° C.): thermodynamically stable form
SMILES: C[C@@H]1CC[C@@H](Nc2nc(NC(C)(C)C)ncc2C(N)=O)C[C@H]1O [Form A, 2-(tert-butylamino)-4-((1R,3R,4R)-3-hydroxy-4-methylcyclohexylamino)-pyrimidine-5-carboxamide]

solid form after heating above the desolvation temperature ([4]; form transfer experiment, heating above the desolvation temperature): Form A
XRPD Result (solid form after slurry in water) [5]: Form A
SMILES: C[C@@H]1CC[C@@H](Nc2nc(NC(C)(C)C)ncc2C(N)=O)C[C@H]1O [Form B, 2-(tert-butylamino)-4-((1R,3R,4R)-3-hydroxy-4-methylcyclohexylamino)-pyrimidine-5-carboxamide]

XRPD Result (solid form after heating) ([4]; Heating, isothermal hold at 150° C. for 5 min): Form A
SMILES: C[C@@H]1CC[C@@H](Nc2nc(NC(C)(C)C)ncc2C(N)=O)C[C@H]1O [Form D, 2-(tert-butylamino)-4-((1R,3R,4R)-3-hydroxy-4-methylcyclohexylamino)-pyrimidine-5-carboxamide]

Stable Polymorph Form after slurry of Form H ([3]; 50% water in DMSO, 22° C.): A/H
Stable Polymorph Form after slurry of Form H ([3]; 60% water in DMSO, 40° C.): A/H
SMILES: C[C@@H]1CC[C@@H](Nc2nc(NC(C)(C)C)ncc2C(N)=O)C[C@H]1O [Form H, 2-(tert-butylamino)-4-((1R,3R,4R)-3-hydroxy-4-methylcyclohexylamino)-pyrimidine-5-carboxamide]
